In patent US9237747B2, “Herbicidal compositions comprising 4-amino-3-chloro-5-fluoro-6-(4-chloro-2-fluoro-3-methoxyphenyl) pyridine-2-carboxylic acid or a derivative thereof and insecticides” (priority 2013, dated 2016):
Read-outs that look alike come from different tables or passages of the source.

Assays:
IPOHE = assay type: in vivo, Ipomoea hederacea
Experimental: Seeds or nutlets of the desired test plant species were planted in a soil matrix prepared by mixing a loam or sandy loam soil (e.g., 28.6 percent silt, 18.8 percent clay, and 52.6 percent sand, with a pH of about 5.8 and an organic matter content of about 1.8 percent) and calcareous grit in an 80 to 20 ratio. The soil matrix was contained in plastic pots with a volume of 1 quart and a surface area of 83.6 square centimeters (cm^2). […] The plants were grown for 8-22 days in a greenhouse with an approximate 14 hour (h) photoperiod which was maintained at about 29° C. during the day and 26° C. during the night. Nutrients (Peters Excel® 15-5-15 5-Ca 2-Mg and iron chelate) were applied in the irrigation solution as needed and water was added on a regular basis. Supplemental lighting was provided with overhead metal halide 1000-Watt lamps as necessary. The plants were employed for testing when they reached the first through fourth true leaf stage.
Treatments consisted of the acid or esters of 4-amino-3-chloro-6-(4-chloro-2-fluoro-3-methoxyphenyl)-5-fluoropyridine-2-carboxylic acid (Compound A), each formulated as an SC (suspension concentrate), and various insecticidal components alone and in combination. Forms of compound A were applied on an acid equivalent basis.
For treatments comprised of formulated compounds, measured amounts of compounds were placed individually in 25 mL glass vials and diluted in a volume of 1.25% volume per volume (v/v) Agri-Dex® crop oil concentrate to obtain 12× stock solutions. […] Application solutions were prepared by adding an appropriate amount of each stock solution (e.g., 1 mL) and diluted to the appropriate final concentrations with the addition of […] of an aqueous mixture of 1.25% (v/v) crop oil concentrate so that the final spray solutions contained 1.25+/−0.05% (v/v) crop oil concentrate.
As required, additional water and/or 97:3 v/v acetone/DMSO was added to individual application solutions so that the final acetone and DMSO concentrations of the application solutions being compared were 8.1% and 0.25%, respectively.
All stock solutions and applications solutions were visually inspected for compound compatibility prior to application. Spray solutions were applied to the plant material with an overhead Mandel track sprayer equipped with 8002E nozzles calibrated to deliver 187 L/ha over an application area of 0.503 square meters (m^2) at a spray height of 18 to 20 inches (46 to 50 cm) above average plant canopy height. Control plants were sprayed in the same manner with the solvent blank.
The treated plants and control plants were placed in a greenhouse as described above and watered by sub-irrigation to prevent wash-off of the test compounds. After approximately 3 weeks, the condition of the test plants as compared to that of the untreated plants was determined visually and scored on a scale of 0 to 100 percent where 0 corresponds to no injury or growth inhibition and 100 corresponds to complete kill.
Colby's equation was used to determine the herbicidal effects expected from the mixtures (Colby, S. R. Calculation of the synergistic and antagonistic response of herbicide combinations. Weeds 1967, 15, 20-22.).
The following equation was used to calculate the expected activity of mixtures containing two active ingredients, A and B: Expected=A+B−(A×B/100)

LEFCH = test: In-water applied weed control, transplanted paddy rice (greenhouse); assay type: in vivo, Leptochloa chinensis
Experimental: Weed seeds or nutlets of the desired test plant species were planted in puddled soil (mud) prepared by mixing a shredded, non-sterilized mineral soil (50.5 percent silt, 25.5 percent clay, and 24 percent sand, with a pH of about 7.6 and an organic matter content of about 2.9 percent) and water at a 1:1 volumetric ratio. The prepared mud was dispensed in 365 mL aliquots into 16-ounce (oz.) non-perforated plastic pots with a surface area of 86.59 square centimeters (cm^2) leaving a headspace of 3 centimeters (cm) in each pot. Rice seeds were planted in Sun Gro MetroMix® 306 planting mixture, which typically has a pH of 6.0 to 6.8 and an organic matter content of about 30 percent, in plastic plug trays. Seedlings at the second or third leaf stage of growth were transplanted into 860 mL of mud contained in 32-oz. non-perforated plastic pots with a surface area of 86.59 cm^2 4 days prior to herbicide application. The paddy was created by filling the headspace of the pots with 2.5 to 3 cm of water. When required to ensure good germination and healthy plants, a fungicide treatment and/or other chemical or physical treatment was applied. The plants were grown for 4-22 days in a greenhouse with an approximate 14 h photoperiod which was maintained at about 29° C. during the day and about 26° C. during the night. Nutrients were added as Osmocote® (17:6:10, N:P:K+minor nutrients) at 2 grams (g) per 16-oz. pot and 4 g per 32-oz. pot. Water was added on a regular basis to maintain the paddy flood, and supplemental lighting was provided with overhead metal halide 1000-Watt lamps as necessary. The plants were employed for testing when they reached the first through fourth true leaf stage. […]
Treatment requirements for each compound or herbicidal component were calculated based upon the rates being tested, the concentration of active ingredient or acid equivalent in the formulation, an application volume of 2 mL per component per pot, and an application area of 86.59 cm^2 per pot.
For formulated compounds, a measured amount was placed in an individual 100 or 200 mL glass vial and was dissolved in a volume of 1.25% (v/v) AgriDex® crop oil concentrate to obtain application solutions. […]
The treated plants and control plants were placed in a greenhouse as described above and water was added as needed to maintain a paddy flood. After approximately 3 weeks the condition of the test plants as compared with that of the untreated plants was determined visually and scored on a scale of 0 to 100 percent where 0 corresponds to no injury or growth inhibition and 100 corresponds to complete kill. […]

COc1c(Cl)ccc(-c2nc(C(=O)O)c(Cl)c(N)c2F)c1F [Compound A Acid, 4-amino-3-chloro-6-(4-chloro-2-fluoro-3-methoxyphenyl)-5-fluoropyridine-2-carboxylic acid]
Visual Weed Control (%) - 21 DAA IPOHE Obs (IPOHE; 5.3 g ae/ha alone): 10%
Visual Weed Control (%) - 21 DAA IPOHE Obs (IPOHE; 10.6 g ae/ha alone): 10%
Visual Weed Control (%) - 21 DAA IPOHE Obs (IPOHE; 21 DAA, 5.3 g ae/ha alone): 10%
Visual Weed Control (%) - 21 DAA IPOHE Obs (IPOHE; 21 DAA, 10.6 g ae/ha alone): 10%
Visual Weed Control (%) - 21 DAA IPOHE Obs (IPOHE; 21 DAA, 21.2 g ae/ha alone): 25%
Visual Weed Control (%) - 21 DAA IPOHE Obs (IPOHE; 21.2 g ae/ha alone): 25%

COc1c(Cl)ccc(-c2nc(C(=O)OCc3ccccc3)c(Cl)c(N)c2F)c1F [Compound A Benzyl Ester]
Visual Weed Control (%) - 20 DAA IPOHE Obs (IPOHE; 4.38 g ae/ha alone): 10%
Visual Weed Control (%) - 20 DAA IPOHE Obs (IPOHE; 8 g ae/ha alone): 10%
Visual Weed Control (%) - 21 DAA IPOHE Obs (IPOHE; 8 g ae/ha alone): 10%
Visual Weed Control (%) - 20 DAA IPOHE Obs (IPOHE; 8.75 g ae/ha alone): 15%
Visual Weed Control (%) - 20 DAA IPOHE Obs (IPOHE; 16 g ae/ha alone): 40%
Visual Weed Control (%) - 21 DAA IPOHE Obs (IPOHE; 16 g ae/ha alone): 50%
Visual Weed Control (%) - 22 DAA IPOHE Obs (IPOHE; 16 g ae/ha alone): 10%
Visual Weed Control (%) - 19 DAA IPOHE Obs (IPOHE; 8 g ae/ha alone): 20%
Visual Weed Control (%) - 19 DAA IPOHE Obs (IPOHE; 16 g ae/ha alone): 40%
Visual Weed Control (%) - 19 DAA IPOHE Obs (IPOHE; 32 g ae/ha alone): 50%
Visual Weed Control (%) - 21 DAA IPOHE Obs (IPOHE; 21 DAA, 4.38 g ae/ha alone): 10%
Visual Weed Control (%) - 21 DAA IPOHE Obs (IPOHE; 21 DAA, 8 g ae/ha alone): 10%
Visual Weed Control (%) - 21 DAA IPOHE Obs (IPOHE; 21 DAA, 8.75 g ae/ha alone): 10%
Visual Weed Control (%) - 21 DAA IPOHE Obs (IPOHE; 21 DAA, 17.5 g ae/ha alone): 20%
Visual Weed Control (%) - 22 DAA IPOHE Obs (IPOHE; 22 DAA, 16 g ae/ha alone): 10%
Visual Weed Control (%) - 22 DAA IPOHE Obs (IPOHE; 22 DAA, 32 g ae/ha alone): 35%
Visual Weed Control (%) - 20 DAA IPOHE Obs (IPOHE; 32 g ae/ha alone): 50%
Visual Weed Control (%) - 21 DAA IPOHE Obs (IPOHE; 32 g ae/ha alone): 60%
Visual Weed Control (%) - 22 DAA IPOHE Obs (IPOHE; 32 g ae/ha alone): 35%
Visual Weed Control (%) - 19 DAA LEFCH Obs (LEFCH; 8 g ae/ha alone): 3%
Visual Weed Control (%) - 19 DAA LEFCH Obs (LEFCH; 16 g ae/ha alone): 8%
Visual Weed Control (%) - 19 DAA LEFCH Obs (LEFCH; 32 g ae/ha alone): 10%

CC(c1ccc(C(F)(F)F)nc1)S(C)(=O)=NC#N (centres unmarked) [Sulfoxaflor, N-[methyloxido[1-[6-(trifluoromethyl)-3-pyridinyl]ethyl]-λ^4-sulfanylidene]cyanamide]
Visual Weed Control (%) - 19 DAA LEFCH Obs (LEFCH; 150 g ai/ha alone): 0%
